# Reference: PubChem BioAssay (NCI)
#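 GI50: concentration for 50% inhibition of growth. TGI marks complete inhibition of growth.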
# Columns and labels:
# Assay in all cases: inhibition of tumour cell growth, NCI panel, 384-well format
# [1] = system: 786-0 renal
# [2] = system: A498 renal
# [3] = system: A549 NSCLC
# [4] = system: ACHN renal
# [5] = system: BT-549 breast
# [6] = system: CAKI-1 renal
# [7] = system: CCRF-CEM leukemia
# [8] = system: COLO 205 colon
# [9] = system: DU-145 prostate
# [10] = system: HCT-116 colon
# [11] = system: HCT-15 colon
# [12] = system: HL-60(TB) leukemia
# [13] = system: HOP-62 NSCLC
# [14] = system: HOP-92 NSCLC
# [15] = system: HT29 colon
# [16] = system: IGROV1 ovarian
# [17] = system: K-562 leukemia
# [18] = system: KM12 colon
# [19] = system: LOX IMVI melanoma
# [20] = system: M14 melanoma
# [21] = system: MALME-3M melanoma
# [22] = system: MCF7 breast
# [23] = system: MDA-MB-231 breast
# [24] = system: MDA-MB-435 melanoma
# [25] = system: MDA-MB-468 breast
# [26] = system: MOLT-4 leukemia
# [27] = system: NCI-H226 lung
# [28] = system: NCI-H23 lung
# [29] = system: NCI-H322M lung
# [30] = system: NCI-H460 NSCLC
# [31] = system: NCI-H522 lung
# [32] = system: NCI/ADR-RES ovarian
# [33] = system: OVCAR-3 ovarian
# [34] = system: OVCAR-4 ovarian
# [35] = system: OVCAR-5 ovarian
# [36] = system: OVCAR-8 ovarian
# [37] = system: PC-3 prostate
# [38] = system: RPMI-8226 leukemia
# [39] = system: RXF 393 renal
# [40] = system: SF-268 CNS
# [41] = system: SF-295 CNS
# [42] = system: SF-539 CNS
# [43] = system: SK-MEL-2 melanoma
# [44] = system: SK-MEL-28 melanoma
# [45] = system: SK-MEL-5 melanoma
# [46] = system: SK-OV-3 ovarian
# [47] = system: SN12C renal
# [48] = system: SNB-19 CNS
# [49] = system: SR leukemia
# [50] = system: SW-620 colon
# [51] = system: T-47D breast
# [52] = system: TK-10 renal
# [53] = system: U251 glioblastoma
# [54] = system: UACC-257 melanoma
# [55] = system: UACC-62 melanoma
# [56] = system: UO-31 renal
structure (smiles),measurement,setting,value
CC(C)(/C=C(\C#N)C(=O)N1CCC[C@@H](n2nc(-c3ccc(Oc4ccccc4)cc3F)c3c(N)ncnc32)C1)N1CCN(C2COC2)CC1,GI50,[1],3.07 µM
same,TGI,[1],10.4 µM
same,GI50,[2],2.39 µM
same,TGI,[2],5.72 µM
same,GI50,[3],3.55 µM
same,TGI,[3],13.2 µM
same,GI50,[4],9.03 µM
same,TGI,[4],21.2 µM
same,GI50,[5],1.21 µM
same,TGI,[5],2.78 µM
same,GI50,[6],3.41 µM
same,TGI,[6],9.34 µM
same,GI50,[7],1.49 µM
same,TGI,[7],2.86 µM
same,GI50,[8],1.63 µM
same,TGI,[8],5.8 µM
same,GI50,[9],9.84 µM
same,TGI,[9],29.1 µM
same,GI50,[10],2.9 µM
same,TGI,[10],10.6 µM
same,GI50,[11],4.52 µM
same,TGI,[11],15.1 µM
same,GI50,[12],1.5 µM
same,TGI,[12],2.89 µM
same,GI50,[13],2.47 µM
same,TGI,[13],5.82 µM
same,GI50,[14],1.38 µM
same,TGI,[14],3.76 µM
same,GI50,[15],1.73 µM
same,TGI,[15],3.48 µM
same,GI50,[16],2.94 µM
same,TGI,[16],9.69 µM
same,GI50,[17],1.24 µM
same,TGI,[17],2.82 µM
same,GI50,[18],0.712 µM
same,TGI,[18],2.47 µM
same,GI50,[19],2.3 µM
same,TGI,[19],4.09 µM
same,GI50,[20],2.08 µM
same,TGI,[20],5.29 µM
same,GI50,[21],1.28 µM
same,TGI,[21],5.26 µM
same,GI50,[22],2.28 µM
same,TGI,[22],10.4 µM
same,GI50,[23],2.54 µM
same,TGI,[23],7.28 µM
same,GI50,[24],0.0551 µM
same,TGI,[24],0.448 µM
same,GI50,[25],0.239 µM
same,TGI,[25],1.16 µM
same,GI50,[26],0.157 µM
same,TGI,[26],0.46 µM
same,GI50,[27],2.18 µM
same,TGI,[27],5.42 µM
same,GI50,[28],3.51 µM
same,TGI,[28],9.62 µM
same,GI50,[29],6.84 µM
same,TGI,[29],23.2 µM
same,GI50,[30],1.87 µM
same,TGI,[30],3.72 µM
same,GI50,[31],0.164 µM
same,TGI,[31],1.36 µM
same,GI50,[32],13.8 µM
same,TGI,[32],27.1 µM
same,GI50,[33],0.289 µM
same,TGI,[33],1.6 µM
same,GI50,[34],1.35 µM
same,TGI,[34],7.72 µM
same,GI50,[35],10.5 µM
same,TGI,[35],22.9 µM
same,GI50,[36],5.91 µM
same,TGI,[36],18 µM
same,GI50,[37],3.73 µM
same,TGI,[37],13.8 µM
same,GI50,[38],1.14 µM
same,TGI,[38],2.38 µM
same,GI50,[39],1.19 µM
same,TGI,[39],3.04 µM
same,GI50,[40],2.29 µM
same,TGI,[40],7.3 µM
same,GI50,[41],9.51 µM
same,TGI,[41],21.5 µM
same,GI50,[42],2.08 µM
same,TGI,[42],5.39 µM
same,GI50,[43],0.0857 µM
same,TGI,[43],1.08 µM
same,GI50,[44],1.86 µM
same,TGI,[44],5.23 µM
same,GI50,[45],1.41 µM
same,TGI,[45],2.92 µM
same,GI50,[46],1.23 µM
same,TGI,[46],3 µM
same,GI50,[47],2.82 µM
same,TGI,[47],7.62 µM
same,GI50,[48],3.69 µM
same,TGI,[48],12.1 µM
same,GI50,[49],0.0378 µM
same,TGI,[49],0.208 µM
same,GI50,[50],1.87 µM
same,TGI,[50],3.63 µM
same,GI50,[51],2.33 µM
same,TGI,[51],11 µM
same,GI50,[52],6.64 µM
same,TGI,[52],18.9 µM
same,GI50,[53],2.6 µM
same,TGI,[53],8.45 µM
same,GI50,[54],1.49 µM
same,TGI,[54],3.81 µM
same,GI50,[55],1.12 µM
same,TGI,[55],3.24 µM
same,GI50,[56],7.98 µM
same,TGI,[56],20.3 µM
